Legend:
Mus musculus [1] = assay: Antialzheimer activity in scopolamine-induced impairment in ICR mouse assessed as total distance to platform at 15 mg/kg, ip administered once a day for 10 days pretreated with scopolamine for 30 mins and measured at 5th day of training session by Morris water maze test (reference value: 6.56 +/- 1.27 m); type: functional
PC-12 [2] = assay: Neuroprotective activity in amyloid beta (1 to 42 residues) (unknown origin)-induced ROS production in rat PC12 cells assessed as intracellular ROS level at 10 uM pretreated for 36 hrs followed by incubation with DCFH-DA for 10 mins by flow cytometry analysis (reference value: 30.7%); type: functional
PC-12 [3] = assay: Neuroprotective activity against amyloid beta (1 to 42 residues) induced cytotoxicity in rat PC12 cells assessed as cell viability at 10 uM incubated for 24 hrs by MTT assay (reference value: 100%); type: functional; details: PC-12, 24 h, read-out: Activity
Mus musculus [4] = assay: Antialzheimer activity in scopolamine-induced impairment in ICR mouse assessed as latency time at 15 mg/kg, ip administered once a day for 10 days pretreated with scopolamine for 30 mins and measured at 5th day of training session by Morris water maze test (reference value: 29.4 +/- 5.77 sec); type: functional
Mus musculus [5] = assay: Antialzheimer activity in scopolamine-induced impairment in ICR mouse assessed as total entries at 15 mg/kg, ip administered once a day for 10 days pretreated with scopolamine for 30 mins and measured at 5th day of training session by Morris water maze test (reference value: 2.19 +/- 0.16); type: functional
[6] = target: T1, Amine oxidase [flavin-containing] B (Homo sapiens, UniProt P27338); assay: Inhibition of human recombinant MAO-B expressed in baculovirus infected BTI insect cells using kynuramine as substrate at 100 nM incubated for 10 mins followed by substrate addition by fluorimetric analysis relative to control
T1 sequence (P27338 whole entry): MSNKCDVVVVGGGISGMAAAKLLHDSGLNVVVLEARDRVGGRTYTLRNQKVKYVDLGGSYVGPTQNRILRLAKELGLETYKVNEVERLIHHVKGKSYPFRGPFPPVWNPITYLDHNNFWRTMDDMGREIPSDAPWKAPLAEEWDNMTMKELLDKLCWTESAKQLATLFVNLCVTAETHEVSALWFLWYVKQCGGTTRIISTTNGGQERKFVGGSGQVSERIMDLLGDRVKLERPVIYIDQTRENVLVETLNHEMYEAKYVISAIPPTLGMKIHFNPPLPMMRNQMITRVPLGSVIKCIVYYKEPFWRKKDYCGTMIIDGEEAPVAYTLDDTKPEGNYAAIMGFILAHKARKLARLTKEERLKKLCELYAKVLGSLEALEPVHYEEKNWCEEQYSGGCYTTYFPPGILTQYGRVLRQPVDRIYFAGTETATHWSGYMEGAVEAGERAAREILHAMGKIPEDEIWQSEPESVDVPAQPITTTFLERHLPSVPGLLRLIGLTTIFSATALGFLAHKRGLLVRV

[7] = Cytotoxicity against rat PC12 cells assessed as cell viability at 25 uM incubated for 24 hrs by MTT assay relative to control; type: cell-based, PC-12; details: read-out: Activity
[8] = target: T1, Amine oxidase [flavin-containing] B; assay: Inhibition of human recombinant MAO-B expressed in baculovirus infected BTI insect cells using kynuramine as substrate incubated for 10 mins followed by substrate addition by fluorimetric analysis
[9] = Dissociation constant, pKa2 of compound for dissociation of the 3-hydroxyl group in 0.1 M KCl incubated for 1 min by UV-pH titration based spectrophotometric analysis; type: physicochemical
[10] = Cytotoxicity against rat PC12 cells assessed as cell viability at 6.25 uM incubated for 24 hrs by MTT assay relative to control; type: cell-based, PC-12; details: read-out: Activity
[11] = Cytotoxicity against rat PC12 cells assessed as cell viability at 3.13 uM incubated for 24 hrs by MTT assay relative to control; type: cell-based, PC-12; details: read-out: Activity
[12] = Cytotoxicity against rat PC12 cells assessed as cell viability at 12.5 uM incubated for 24 hrs by MTT assay relative to control; type: cell-based, PC-12; details: read-out: Activity
[13] = Cytotoxicity against rat PC12 cells assessed as cell viability at 50 uM incubated for 24 hrs by MTT assay relative to control; type: cell-based, PC-12; details: read-out: Activity
[14] = Metal chelating activity assessed as Fe3+ complex formation by measuring stability constant for Fe(I)2 in using pre Fe+3 complexed compound (FeCl3) in 0.1 M KCl :DMSO solution UV-pH titration based spectrophotometric analysis
[15] = Metal chelating activity assessed as Fe3+ complex formation by measuring stability constant for FeI in using pre Fe+3 complexed compound (FeCl3) in 0.1 M KCl :DMSO solution UV-pH titration based spectrophotometric analysis
[16] = Dissociation constant, pKa1 of compound for protonation of the 4-oxo group in 0.1 M KCl incubated for 1 min by UV-pH titration based spectrophotometric analysis; type: physicochemical
[17] = Metal chelating activity assessed as iron chelation
[18] = Metal chelating activity assessed as Fe3+ complex formation by measuring stability constant for Fe(I)3 in using pre Fe+3 complexed compound (FeCl3) in 0.1 M KCl :DMSO solution UV-pH titration based spectrophotometric analysis

| SMILES | inhibition at 0.1 µM [6] [%] | IC50 [8] [nM] | pKa at 1 min [9] | log(activity) [14] | log(activity) [15] | pKa at 1 min [16] | pFe3+ [17] | log(activity) [18] | Activity (Mus musculus [1]) [m] | Activity (PC-12 [2]) [%] | viability at 10 µM (PC-12 [3]) [%] | Time (Mus musculus [4]) [s] | Activity (Mus musculus [5]) | viability at 24 h, 25 µM [7] [%] | viability at 24 h, 6.25 µM [10] [%] | viability at 24 h, 3.13 µM [11] [%] | viability at 24 h, 12.5 µM [12] [%] | viability at 24 h, 50 µM [13] [%] |
| --- | --- | --- | --- | --- | --- | --- | --- | --- | --- | --- | --- | --- | --- | --- | --- | --- | --- | --- |
| CC12CC3CC(C)(C1)CC(N)(C3)C2 [MEMANTINE] | – | – | – | – | – | – | – | – | 3.52 | 30.51 | 55.2 | 13.42 | 5.19 | – | – | – | – | – |
| C#CCN(C)Cc1ccccc1 [PARGYLINE] | 53 | – | – | – | – | – | – | – | 4.37 | – | – | 20.85 | 3.81 | – | – | – | – | – |
| Cc1c(O)c(=O)ccn1CCNC(=O)c1cc2cc(O)ccc2oc1=O | 46.4 | 188 | 10.1 | 26.5 | 15.1 | 3.33 | 17.2 | 34.1 | – | – | – | – | – | – | – | – | – | – |
| Nc1c2c(nc3ccccc13)CCCC2 [TACRINE] | – | – | – | – | – | – | – | – | 4.28 | – | – | 18.03 | 4.63 | – | – | – | – | – |
| O=C(NCCn1ccc(=O)c(O)c1)c1cc2ccccc2oc1=O | 46.1 | 195 | 8.74 | 23.4 | 12.9 | 3 | 18.2 | 31.8 | – | – | – | – | – | – | – | – | – | – |

Second part, led by results:

| inhibition at 0.1 µM [6] [%] | IC50 [8] [nM] | pKa at 1 min [9] | log(activity) [14] | log(activity) [15] | pKa at 1 min [16] | pFe3+ [17] | log(activity) [18] | SMILES | Activity (Mus musculus [1]) [m] | Activity (PC-12 [2]) [%] | viability at 10 µM (PC-12 [3]) [%] | Time (Mus musculus [4]) [s] | Activity (Mus musculus [5]) | viability at 24 h, 25 µM [7] [%] | viability at 24 h, 6.25 µM [10] [%] | viability at 24 h, 3.13 µM [11] [%] | viability at 24 h, 12.5 µM [12] [%] | viability at 24 h, 50 µM [13] [%] |
| --- | --- | --- | --- | --- | --- | --- | --- | --- | --- | --- | --- | --- | --- | --- | --- | --- | --- | --- |
| 65.5 | 87.9 | 9.7 | 26.2 | 14.9 | 3.27 | 18.9 | 35.3 | COc1ccc2cc(C(=O)NCCn3ccc(=O)c(O)c3C)c(=O)oc2c1 | 3.87 | 8.2 | 88.2 | 14.94 | 4.63 | 90.4 | 99.9 | 98.7 | 98 | 61.7 |
| 44.3 | 163 | 9.75 | 25.4 | 14.2 | 3.32 | 17.8 | 34.3 | Cc1ccc2cc(C(=O)NCCn3ccc(=O)c(O)c3C)c(=O)oc2c1 | – | – | – | – | – | – | – | – | – | – |
| 46.2 | 108 | 9.75 | 25.6 | 14.2 | 3.3 | 18.2 | 34.7 | CCOc1ccc2cc(C(=O)NCCn3ccc(=O)c(O)c3C)c(=O)oc2c1 | – | – | – | – | – | – | – | – | – | – |

From ChEMBL document CHEMBL4622885, “Rational design, synthesis and biological evaluation of novel multitargeting anti-AD iron chelators with potent MAO-B inhibitory and antioxidant activity” (Bioorg Med Chem, 2020)
